Results from patent US6890885B2, “Herbicidal composition” (priority 2000, dated 2005).
“And” between values parts separate entries of the source, which are not always exact repeats. Identical values can stand only once.

Legend:
Type in all cases: in vivo
[1] = tested on: Monocotyledonous and dicotyledonous test plants; test: Pre-emergence test: herbicidal action (% action) of single active ingredients and mixtures, with expected action We according to Colby; details: for herbicidal action (% action): evaluated after 36 days
Source text: (§1) The herbicidal action to be expected We for a given combination of two herbicides can be calculated as follows (see COLBY, S. R., “Calculating synergistic and antagonistic response of herbicide combinations”, Weeds 15, pages 20-22,1967):
(§2) When the action actually observed is greater than the value to be expected We, there is a synergistic effect.
Experiment Description—Pre-emergence Test
Monocotyledonous and dicotyledonous test plants are sown in standard soil in plastics pots. Directly after sowing, the test substances are applied in aqueous suspension by spraying (500 liters of water/ha). The rates of application depend on the optimum doses ascertained under field conditions and greenhouse conditions. The test plants are then grown on in the greenhouse under optimum conditions. The tests are evaluated after 36 days (% action, 100%=plant has died, 0%=no phytotoxic action).
In the following Tables, evaluation is carried out after 14 days:
In the following Tables, evaluation is carried out after 31 days: […]

[2] = tested on: test plants; test: Post-emergence test: herbicidal action (% action) of the herbicide on its own and as a mixture, with expected action We according to Colby
Source text: A synergistic effect exists whenever the action of the active ingredient combination of compounds of formula 1 and 2.1 to 2.51 is greater than the sum of the actions of the active ingredients applied separately.
as §1
• X=percentage herbicidal action on treatment with the compound of formula I at a rate of application of p kg per hectare, compared with the untreated control (=0%). • Y=percentage herbicidal action on treatment with a compound of formula 2.1 to 2.51 at a rate of application of q kg per hectare, compared with the untreated control. • We=expected herbicidal action (percentage herbicidal action compared with the untreated control) following treatment with the compounds of formulae 1 and 2.1 to 2.51 at a rate of application of p+q kg of active ingredient per hectare.
as §2
Experiment Description—Post-emergence Test
The test plants are grown to the 2- to 3-leaf stage in plastics pots under greenhouse conditions. A standard soil is used as cultivation substrate. At the 2- to 3-leaf stage, the herbicide is applied to the test plants on its own and as a mixture. The application is carried out using an aqueous suspension of the test substances in 500 liters of water/ha. The rates of application depend on the optimum doses ascertained under field conditions and greenhouse conditions. The tests are evaluated after 33 days (% action, 100%=plant has died, 0%=no phytotoxic action).
Mixture A contains as active ingredients 915 g/liter of the compound of formula 2.2a and 45 g/liter of the compound of formula 3.1.
In the following Tables, evaluation is carried out after 21 days: […]

[3] = tested on: crop plants, e.g. maize and cereals; test: Safening action: phytotoxic action of the herbicides on crop plants with and without safener; details: 50 g/ha herbicide alone, applied at 4-leaf stage, 4 weeks after application
Description: Biological Example: Safening Action
The test plants are grown in plastics pots under greenhouse conditions to the 4-leaf stage. At that stage, the herbicides alone, and the mixtures of the herbicides with the test compounds that are to be tested as safeners, are applied to the test plants. The application is in the form of an aqueous suspension of the test compounds prepared from a 25% wettable powder (Example F3, b)) with 500 liters of water/ha. 4 weeks after application, the phytotoxic action of the herbicides on the crop plants, e.g. maize and cereals, is evaluated using a percentage scale. 100% denotes that the test plant has died, 0% denotes no phytotoxic action.
The same results are obtained when the mixtures are formulated in accordance with Examples F1, F2 and F4 to F8.

CSc1nnc(C(C)(C)C)c(=O)n1N [Compound 2.14, metribuzin, reference compound]
herbicidal action ([1]; Ipomoea, 125 g/ha, after 31 days): 0% | herbicidal action ([1]; Polygonum, 125 g/ha, after 14 days (Table B13)): 30% | herbicidal action ([1]; Polygonum, 250 g/ha, after 14 days): 50% | herbicidal action ([1]; Xanthium, 125 g/ha, after 31 days): 20%

COC(=O)CSc1cc(/N=c2\sc(=O)n3n2CCCC3)c(F)cc1Cl [Compound 2.25, fluthiacet-methyl, reference compound]
herbicidal action ([2]; Ipomoea, 2 g/ha, post-emergence, after 21 days): 0% | herbicidal action ([2]; Polygonum, 2 g/ha, post-emergence, after 21 days): 0%

CC(C)N(C(=O)COc1nnc(C(F)(F)F)s1)c1ccc(F)cc1 [Compound 2.30, fluthiamid, reference compound]
herbicidal action ([1]; Cyperus, 100 g/ha, after 14 days (Table B22)): 0% | herbicidal action ([1]; Polygonum, 60 g/ha, after 14 days (Table B15)): 30%

COc1c(Cl)ccc(Cl)c1C(=O)O [Compound 2.19, dicamba, reference compound]
herbicidal action ([2]; in vivo): 60%

Cc1nc(C(F)(F)F)ccc1C(=O)C1=C(O)C2CCC(C2)C1=O (centres unmarked) [Compound 1.001, 4-hydroxy-3-(2-methyl-6-trifluoromethyl-pyridine-3-carbonyl)-bicyclo[3.2.1]oct-3-en-2-one]
herbicidal action ([2]; Ipomoea, 6.25 g/ha, post-emergence, after 33 days): 0% | herbicidal action ([2]; Ipomoea, 6.25 g/ha, post-emergence, after 33 days (Table B10)): 0% | herbicidal action ([2]; Ipomoea, 12.5 g/ha, post-emergence, after 21 days): 30% | herbicidal action ([2]; Ipomoea, 12.5 g/ha, post-emergence, after 33 days): 0% | herbicidal action ([2]; Ipomoea, 12.5 g/ha, post-emergence, after 33 days (Table B8)): 0% | herbicidal action ([2]; Ipomoea, 25 g/ha, post-emergence, after 21 days (Table B29)): 30% | herbicidal action ([2]; Ipomoea, 25 g/ha, post-emergence, after 21 days (Table B30)): 30% | herbicidal action ([2]; Ipomoea, 25 g/ha, post-emergence, after 21 days (Table B31)): 30% | herbicidal action ([2]; Ipomoea, 25 g/ha, post-emergence, after 21 days (Table B33)): 30% | herbicidal action ([2]; Polygonum, 6.25 g/ha, post-emergence, after 33 days): 0% | herbicidal action ([2]; Polygonum, 6.25 g/ha, post-emergence, after 33 days (Table B10)): 0% | herbicidal action ([2]; Polygonum, 12.5 g/ha, post-emergence, after 21 days (Table B32)): 30% | herbicidal action ([2]; Polygonum, 12.5 g/ha, post-emergence, after 21 days (Table B34)): 30% | herbicidal action ([2]; Polygonum, 12.5 g/ha, post-emergence, after 21 days (Table B35)): 30% | herbicidal action ([2]; Polygonum, 12.5 g/ha, post-emergence, after 33 days): 0% | herbicidal action ([2]; Polygonum, 12.5 g/ha, post-emergence, after 33 days (Table B8)): 0% | herbicidal action ([2]; Polygonum, 25 g/ha, post-emergence, after 21 days (Table B29)): 75% | herbicidal action ([2]; Polygonum, 25 g/ha, post-emergence, after 21 days (Table B31)): 75% | herbicidal action ([2]; Polygonum, 25 g/ha, post-emergence, after 21 days (Table B36)): 75% | herbicidal action ([2]; Xanthium, 6.25 g/ha, post-emergence, after 33 days): 70% | herbicidal action ([2]; Xanthium, 6.25 g/ha, post-emergence, after 33 days (Table B10)): 70% | herbicidal action ([2]; Xanthium, 12.5 g/ha, post-emergence, after 33 days): 80% | herbicidal action ([2]; Xanthium, 12.5 g/ha, post-emergence, after 33 days (Table B8)): 80% | herbicidal action ([2]; Xanthium, 25 g/ha, post-emergence, after 21 days): 90% | herbicidal action ([1]; Amaranthus, 6 g/ha, after 23 days): 10% | herbicidal action ([1]; Chenopodium, 6 g/ha, after 23 days (Table B37)): 50% | herbicidal action ([1]; Chenopodium, 6 g/ha, after 23 days (Table B38)): 50% | herbicidal action ([1]; Chenopodium, 12.5 g/ha, after 14 days (Table B19)): 80% | herbicidal action ([1]; Chenopodium, 12.5 g/ha, after 14 days (Table B20)): 80% | herbicidal action ([1]; Chenopodium, 25 g/ha, after 14 days): 80% | herbicidal action (% action) ([1]; Chenopodium, Compd. 1.001 6.25 g/ha): 0% | herbicidal action (% action) ([1]; Chenopodium, Compd. 1.001 12.5 g/ha): 0% | herbicidal action (% action) ([1]; Chenopodium, Compd. 1.001 25 g/ha): 0% | herbicidal action ([1]; Cyperus, 12.5 g/ha, after 14 days (Table B19)): 0% | herbicidal action ([1]; Cyperus, 12.5 g/ha, after 14 days (Table B20)): 0% | herbicidal action ([1]; Cyperus, 25 g/ha, after 14 days (Table B18)): 0% | herbicidal action ([1]; Cyperus, 25 g/ha, after 14 days (Table B22)): 10% | herbicidal action ([1]; Ipomoea, 25 g/ha, after 31 days (Table B25)): 70% | herbicidal action ([1]; Ipomoea, 25 g/ha, after 31 days (Table B26)): 70% | herbicidal action ([1]; Ipomoea, 25 g/ha, after 31 days (Table B27)): 70% | herbicidal action (% action) ([1]; Ipomoea, Compd. 1.001 6.25 g/ha): 0% | herbicidal action (% action) ([1]; Ipomoea, Compd. 1.001 12.5 g/ha): 0% | herbicidal action (% action) ([1]; Ipomoea, Compd. 1.001 25 g/ha): 30% | herbicidal action ([1]; Polygonum, 25 g/ha, after 31 days (Table B23)): 0% | herbicidal action ([1]; Polygonum, 25 g/ha, after 31 days (Table B24)): 0% | herbicidal action ([1]; Polygonum, 50 g/ha, after 31 days): 0% | herbicidal action (% action) ([1]; Sida, Compd. 1.001 6.25 g/ha): 0% | herbicidal action (% action) ([1]; Sida, Compd. 1.001 12.5 g/ha): 0% | herbicidal action (% action) ([1]; Sida, Compd. 1.001 25 g/ha): 0% | herbicidal action ([1]; Solanum, 12.5 g/ha, after 14 days (Table B19)): 75% | herbicidal action ([1]; Solanum, 12.5 g/ha, after 14 days (Table B20)): 75% | herbicidal action ([1]; Solanum, 12.5 g/ha, after 14 days (Table B21)): 75% | herbicidal action ([1]; Solanum, 25 g/ha, after 14 days): 80% | herbicidal action (% action) ([1]; Sorghum, Compd. 1.001 6.25 g/ha): 0% | herbicidal action (% action) ([1]; Sorghum, Compd. 1.001 12.5 g/ha): 0% | herbicidal action (% action) ([1]; Sorghum, Compd. 1.001 25 g/ha): 30% | herbicidal action ([1]; Xanthium, 25 g/ha, after 31 days (Table B25)): 80% | herbicidal action ([1]; Xanthium, 25 g/ha, after 31 days (Table B26)): 80% | herbicidal action ([1]; Xanthium, 25 g/ha, after 31 days (Table B27)): 80% | phytotoxic action ([3]; Abutilon): 100% | phytotoxic action ([3]; Maize): 50% | phytotoxic action ([3]; Setaria): 100%

CCc1cccc(C)c1N(COCCl)C(C)COC (centres unmarked) [Compound 2.2.b, reference compound]
herbicidal action ([1]; Chenopodium, 300 g/ha, after 14 days): 0% | herbicidal action ([1]; Cyperus, 300 g/ha, after 14 days): 0% | herbicidal action ([1]; Solanum, 300 g/ha, after 14 days): 40%

CCC(CC)Nc1c([N+](=O)[O-])cc(C)c(C)c1[N+](=O)[O-] [Compound 2.18, pendimethalin, reference compound]
herbicidal action ([1]; Polygonum, 500 g/ha, after 14 days): 80%

O=C(O)CNCP(=O)(O)O [Compound 2.16, glyphosate, reference compound]
herbicidal action ([2]; in vivo): 20% and 10%

O=C(O)CNCP(=O)(O)O [Compound 2.33, sulfosate, reference compound]
herbicidal action ([2]; Polygonum, 360 g/ha, post-emergence, after 21 days (Table B32)): 0%
